Columns and labels:
MCF7 cells = test: Global quantitative proteomic analysis of MCF7 cells by mass spectrometry; assay type: cell-based, Homo sapiens; conditions: 25 nM, 4 h, two-fold cutoff, p-value ≤0.05, 3491 proteins quantified
Method: (§1) Sample preparation for global proteomics analysis. Sample preparation is similar to the previous report (Ma et al. “Strategy Based on Deglycosylation, Multiprotease, and Hydrophilic Interaction Chromatography for Large-Scale Profiling of Protein Methylation” Anal. Chem. 2017, 89 (23), 12909-12917). Briefly, treated MCF7 cells were harvested by washing with PBS buffer (Gibco, pH 7.4) and lysed in RIPA buffer supplemented with protease inhibitors for 20 min, then protein concentration was determined using a BCA Protein Assay Kit (Thermo Pierce, Rockford, IL) per manufacturer instructions. […] The concentrations of the peptide mixture were measured by peptide assay (Thermo Fisher Scientific). […]
(§2) LC-MS/MS data acquisition. Samples were analyzed on an Orbitrap Fusion Lumos Tribrid mass spectrometer (Thermo Fisher Scientific) coupled to a Dionex UltiMate 3000 UPLC system. […]
(§3) Data analysis. Protein identification and quantification by MaxQuant (version 1.5.3.8) based database searching, using the integrated Andromeda search engine with FDR <1% at peptide and protein levels. […] For label-free protein quantification (LFQ), the MaxQuant LFQ algorithm was used to quantitate the MS signals, and the proteins' intensities were represented in LFQintesnit (Schaab et al. “Analysis of High Accuracy, Quantitative Proteomics Data in the MaxQB Database” Mol. Cell. Proteomics 2012, 11 (3), M111.014068). […]

PRMT5 = target: T1, PRMT5 (Homo sapiens, UniProt O14744); test: Global proteomics of MCF7 cells, PRMT5 level; assay type: cell-based; conditions: 25 nM, 4 h, versus DMSO
T1 construct: we performed a global quantitative proteomic analysis of MCF7 cells using mass spectrometry; endogenous in cells; host or cells: MCF7
Method: as §1, §2, §3

CARM1 = target: T2, CARM1 (Homo sapiens, UniProt Q86X55); test: Global proteomics of MCF7 cells, CARM1 level; assay type: cell-based; set-up: we performed a global quantitative proteomic analysis of MCF7 cells using mass spectrometry; endogenous in cells; host or cells: MCF7; conditions: 25 nM, 4 h, versus DMSO
T2 sequence (Q86X55 1-608): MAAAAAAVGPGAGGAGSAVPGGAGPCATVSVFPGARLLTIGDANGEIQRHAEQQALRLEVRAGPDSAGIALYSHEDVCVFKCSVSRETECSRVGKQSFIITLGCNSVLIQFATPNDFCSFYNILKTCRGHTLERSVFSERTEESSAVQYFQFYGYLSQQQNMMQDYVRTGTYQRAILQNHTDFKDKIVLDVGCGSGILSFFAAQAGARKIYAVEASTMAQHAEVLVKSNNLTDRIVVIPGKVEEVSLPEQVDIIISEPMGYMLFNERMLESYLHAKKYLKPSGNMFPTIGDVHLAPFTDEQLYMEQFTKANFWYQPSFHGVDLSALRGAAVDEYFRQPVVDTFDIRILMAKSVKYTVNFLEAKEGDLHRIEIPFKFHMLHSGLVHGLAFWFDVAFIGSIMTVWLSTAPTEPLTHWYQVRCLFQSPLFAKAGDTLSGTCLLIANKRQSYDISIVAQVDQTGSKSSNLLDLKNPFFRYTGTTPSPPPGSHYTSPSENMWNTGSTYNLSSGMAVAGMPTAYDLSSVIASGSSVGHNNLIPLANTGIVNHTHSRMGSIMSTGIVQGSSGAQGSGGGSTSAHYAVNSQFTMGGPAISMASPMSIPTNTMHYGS
Method: as §1, §2, §3

T1 sequence (O14744 whole entry): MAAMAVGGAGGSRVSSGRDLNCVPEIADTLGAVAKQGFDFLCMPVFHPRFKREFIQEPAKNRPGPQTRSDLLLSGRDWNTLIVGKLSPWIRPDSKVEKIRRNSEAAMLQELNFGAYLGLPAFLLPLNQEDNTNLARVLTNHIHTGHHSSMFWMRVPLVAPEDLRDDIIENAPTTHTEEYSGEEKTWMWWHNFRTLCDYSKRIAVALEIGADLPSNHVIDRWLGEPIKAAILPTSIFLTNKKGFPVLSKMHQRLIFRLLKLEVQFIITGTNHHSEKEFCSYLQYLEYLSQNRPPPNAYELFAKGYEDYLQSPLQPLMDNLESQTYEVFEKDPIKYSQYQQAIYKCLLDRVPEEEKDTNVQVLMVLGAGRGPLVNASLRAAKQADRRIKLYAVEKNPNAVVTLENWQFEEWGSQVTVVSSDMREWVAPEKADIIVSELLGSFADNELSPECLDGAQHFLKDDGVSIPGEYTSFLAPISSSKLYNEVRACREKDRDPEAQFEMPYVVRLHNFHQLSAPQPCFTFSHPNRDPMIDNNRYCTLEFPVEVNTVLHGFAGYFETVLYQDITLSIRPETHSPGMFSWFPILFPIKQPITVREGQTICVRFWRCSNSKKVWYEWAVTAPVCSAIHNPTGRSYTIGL

For CNCCN1CCC(c2cc(CN(C)C(=O)c3cccc(Oc4ccc(OCC(=O)N5CCC(CN6CCC(CN7CCN(CC(=O)N[C@H](C(=O)N8C[C@H](O)C[C@H]8C(=O)N[C@@H](C)c8ccc(-c9scnc9C)cc8)C(C)(C)C)CC7)CC6)CC5)cc4)c3)ccn2)CC1 [Compound 3b, (2S,4R)-1-((S)-3,3-dimethyl-2-(2-(4-((1-((1-(2-(4-(3-(methyl((2-(1-(2-(methylamino)ethyl)piperidin-4-yl)pyridin-4-yl)methyl)carbamoyl)phenoxy)phenoxy)acetyl)piperidin-4-yl)methyl)piperidin-4-yl)methyl)piperazin-1-yl)acetamido)butanoyl)-4-hydroxy-N—((S)-1-(4-(4-methylthiazol-5-yl)phenyl)ethyl)pyrrolidine-2-carboxamide], the “Number of significantly changed proteins compared to the DMSO group” value (MCF7 cells) was 25, the “PRMT5 protein level in proteomics” value (PRMT5) was “not significantly changed” and the “CARM1 protein level in proteomics” value (CARM1) was “significant downregulation”.
